The source of these data is patent US10047074B2, “Pharmaceutical compound” (IOmet Pharma Ltd., priority 2014, dated 2018).

The target in assay [1] is T1, IDO (SKOV3) (Homo sapiens, UniProt P14902).
T1 construct: IDO expression was induced in the SKOV3 cells by the addition of 500 ng/ml IFN-γ; endogenous in cells; host or cells: SKOV3 (human ovarian adenocarcinoma), IFN-γ induced
Put plainly: SKOV3 Kynurenine cell based assay. The note with it: SKOV3 human ovarian adenocarcinoma cells, IDO induced by IFN-γ; kynurenine production, 48 hours. As for the experimental part: (§1) Exemplary compounds of the invention were prepared, and tested to determine their effect as TDO and/or IDO inhibitors. Two different assays were employed: 1. a cell-based assay for detecting the effect of test compounds on kynurenine production in two different cancer cell types. This assay utilised cancer cells which expressed either TDO (A172) or IDO (SKOV3) and as such was used as a means of testing compound activity at these two enzymes in a cell-based context. 2. a TDO and IDO biochemical coupled assay which utilised recombinantly produced and purified TDO and IDO enzymes in combination with the enzyme formamidase. This coupled enzyme system allowed conversion of N-formylkynurenine produced by TDO or IDO activity to kynurenine which was then quantified by fluorescence following addition of Erhlich's Reagent The protocols for these are set out below.
(§2) Cell Based Assay for Detection of Kynurenine Produced by TDO and/or IDO
(§3) A172 (human glioblastoma) and SKOV3 (human ovarian adenocarcinoma) cells were seeded in a 96 well plate at 30,000 or 40,000 cells per well respectively in phenol red-free RPMI supplemented with 10% FCS, 2 mM L-glutamine and 500 µM L-tryptophan. IDO expression was induced in the SKOV3 cells by the addition of 500 ng/ml IFN-γ. Cells were incubated at 37° C. with or without the addition of test compound. After 48 hours, the cells were removed by centrifugation and Erhlich's reagent was added to the supernatant.

Assay [2] has as its target T2, TDO (A172) (Homo sapiens, UniProt P48775).
T2 construct: This assay utilised cancer cells which expressed either TDO (A172) or IDO (SKOV3); endogenous in cells; host or cells: A172 (human glioblastoma)
Kind of assay: A172 Kynurenine cell based assay. The note with it: A172 human glioblastoma cells expressing TDO; kynurenine production, 48 hours. As for the experimental part: as §1, §2
as §3, with “supernatant. The Erhlich's reagent was incubated for 5 minutes before the absorbance was read at 490 nm.” for “supernatant.”

The structures appear in SMILES notation.

T2 sequence (P48775 whole entry): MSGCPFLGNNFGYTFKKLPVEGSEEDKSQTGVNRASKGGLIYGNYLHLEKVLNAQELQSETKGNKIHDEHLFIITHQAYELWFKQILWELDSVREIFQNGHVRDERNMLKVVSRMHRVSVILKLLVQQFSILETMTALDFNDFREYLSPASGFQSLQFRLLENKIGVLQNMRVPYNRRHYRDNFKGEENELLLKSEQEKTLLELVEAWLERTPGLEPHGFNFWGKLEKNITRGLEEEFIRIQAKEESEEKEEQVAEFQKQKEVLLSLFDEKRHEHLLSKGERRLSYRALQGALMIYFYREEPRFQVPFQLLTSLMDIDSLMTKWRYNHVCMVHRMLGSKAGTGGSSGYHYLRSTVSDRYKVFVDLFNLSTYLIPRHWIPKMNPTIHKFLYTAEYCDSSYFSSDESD
T1 sequence (P14902 whole entry): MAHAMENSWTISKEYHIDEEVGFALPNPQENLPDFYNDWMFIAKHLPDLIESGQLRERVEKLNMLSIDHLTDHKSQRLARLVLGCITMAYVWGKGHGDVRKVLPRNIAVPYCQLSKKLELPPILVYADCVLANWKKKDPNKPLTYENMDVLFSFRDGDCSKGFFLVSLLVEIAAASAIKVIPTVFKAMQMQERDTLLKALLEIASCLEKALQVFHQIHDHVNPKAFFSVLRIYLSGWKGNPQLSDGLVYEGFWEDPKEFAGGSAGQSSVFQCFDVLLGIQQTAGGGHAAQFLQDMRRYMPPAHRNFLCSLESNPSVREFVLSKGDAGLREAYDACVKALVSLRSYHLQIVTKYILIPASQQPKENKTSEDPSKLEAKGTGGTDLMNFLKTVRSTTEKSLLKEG

Regarding `CCOC(=O)CCC(=O)Nc1oncc1-c1ccccc1` [Compound 28], the “SKOV3 Kynurenine cell based assay pIC50” value in assay [1] was “++ (++ = pIC50 4.50-5.49)”. Besides, the “A172 Kynurenine cell based assay pIC50” value in assay [2] is recorded as “+++ (+++ = pIC50 ≥ 5.50)”.

Consider `O=S(=O)(Cc1ccccc1)Nc1oncc1-c1ccccc1` [Compound 29], for which the “SKOV3 Kynurenine cell based assay pIC50” value in assay [1] was “++ (++ = pIC50 4.50-5.49)”. Besides, the “A172 Kynurenine cell based assay pIC50” value in assay [2] is listed as “+ (+ = pIC50 4.00-4.49)”.

As for `CC(C)S(=O)(=O)Nc1oncc1-c1ccccc1` [Compound 30], the “SKOV3 Kynurenine cell based assay pIC50” value in assay [1] was “+ (+ = pIC50 4.00-4.49)”. In addition, the “A172 Kynurenine cell based assay pIC50” value in assay [2] is recorded as “++ (++ = pIC50 4.50-5.49)”.

As to `CC(C)CS(=O)(=O)Nc1oncc1-c1ccccc1` [Compound 31], the “SKOV3 Kynurenine cell based assay pIC50” value in assay [1] is reported as “++ (++ = pIC50 4.50-5.49)”. Moreover, the “A172 Kynurenine cell based assay pIC50” value in assay [2] was “+/− (+/− = pIC50 < 4.00)”.

In the case of `O=S(=O)(CC1CCOCC1)Nc1oncc1-c1ccccc1` [Compound 32], in assay [1], the “SKOV3 Kynurenine cell based assay pIC50” value is “+ (+ = pIC50 4.00-4.49)”. Moreover, the “A172 Kynurenine cell based assay pIC50” value in assay [2] is “+/− (+/− = pIC50 < 4.00)”.

Turning to `O=C(O)CCC(=O)Nc1oncc1-c1ccccc1` [Compound 33], in assay [1], the “SKOV3 Kynurenine cell based assay pIC50” value is given as “+/− (+/− = pIC50 < 4.00)”. The “A172 Kynurenine cell based assay pIC50” value in assay [2] is “+ (+ = pIC50 4.00-4.49)”.

`CC(=O)N1CCC(C(=O)Nc2oncc2-c2ccccc2)CC1` [Compound 35]: the “SKOV3 Kynurenine cell based assay pIC50” value in assay [1] is given as “+ (+ = pIC50 4.00-4.49)”. The “A172 Kynurenine cell based assay pIC50” value in assay [2] was “++ (++ = pIC50 4.50-5.49)”.

For `CN1CCC(C(=O)Nc2oncc2-c2ccccc2)CC1` [Compound 36], the “SKOV3 Kynurenine cell based assay pIC50” value in assay [1] was “+ (+ = pIC50 4.00-4.49)”. In assay [2], the “A172 Kynurenine cell based assay pIC50” value is recorded as “++ (++ = pIC50 4.50-5.49)”.

For the compound `CN(C)CC(=O)Nc1oncc1-c1ccccc1` [Compound 37], the “SKOV3 Kynurenine cell based assay pIC50” value in assay [1] is “++ (++ = pIC50 4.50-5.49)”. Moreover, in assay [2], the “A172 Kynurenine cell based assay pIC50” value is given as “++ (++ = pIC50 4.50-5.49)”.

In the case of `CS(=O)(=O)N1CCC(C(=O)Nc2oncc2-c2ccccc2)CC1` [Compound 38], the “SKOV3 Kynurenine cell based assay pIC50” value in assay [1] was “+ (+ = pIC50 4.00-4.49)”. Moreover, in assay [2], the “A172 Kynurenine cell based assay pIC50” value is reported as “++ (++ = pIC50 4.50-5.49)”.

As to `O=C(Nc1oncc1-c1ccccc1)c1ccncc1` [Compound 39], the “SKOV3 Kynurenine cell based assay pIC50” value in assay [1] is given as “++ (++ = pIC50 4.50-5.49)”. The “A172 Kynurenine cell based assay pIC50” value in assay [2] was “+ (+ = pIC50 4.00-4.49)”.

Regarding `O=C(Nc1oncc1-c1ccccc1)c1ccccn1` [Compound 40], the “SKOV3 Kynurenine cell based assay pIC50” value in assay [1] is “++ (++ = pIC50 4.50-5.49)”. The “A172 Kynurenine cell based assay pIC50” value in assay [2] is recorded as “+++ (+++ = pIC50 ≥ 5.50)”.

For the compound `O=C(CCO)Nc1oncc1-c1ccccc1` [Compound 41], the “SKOV3 Kynurenine cell based assay pIC50” value in assay [1] is given as “++ (++ = pIC50 4.50-5.49)”. For the same compound, in assay [2], the “A172 Kynurenine cell based assay pIC50” value is “+++ (+++ = pIC50 ≥ 5.50)”.

As to `OCCCNc1oncc1-c1ccccc1` [Compound 42], in assay [1], the “SKOV3 Kynurenine cell based assay pIC50” value is reported as “+ (+ = pIC50 4.00-4.49)”. Further, the “A172 Kynurenine cell based assay pIC50” value in assay [2] was “+++ (+++ = pIC50 ≥ 5.50)”.

With `CCOC(=O)CC(=O)Nc1oncc1-c1ccccc1` [Compound 43], in assay [1], the “SKOV3 Kynurenine cell based assay pIC50” value is recorded as “++ (++ = pIC50 4.50-5.49)”. The “A172 Kynurenine cell based assay pIC50” value in assay [2] is reported as “+++ (+++ = pIC50 ≥ 5.50)”.

In the case of `O=C(Nc1oncc1-c1ccccc1)C1CCCCN1` (centres unmarked) [Compound 44], the “SKOV3 Kynurenine cell based assay pIC50” value in assay [1] is “++ (++ = pIC50 4.50-5.49)”. In addition, the “A172 Kynurenine cell based assay pIC50” value in assay [2] is given as “+++ (+++ = pIC50 ≥ 5.50)”.

On to `CCOC(=O)C(=O)Nc1oncc1-c1ccccc1` [Compound 45], for which the “SKOV3 Kynurenine cell based assay pIC50” value in assay [1] was “+ (+ = pIC50 4.00-4.49)”. In assay [2], the “A172 Kynurenine cell based assay pIC50” value is given as “+++ (+++ = pIC50 ≥ 5.50)”.

Turning to `Nc1oncc1-c1ccncc1` [Compound 46], in assay [1], the “SKOV3 Kynurenine cell based assay pIC50” value is listed as “+ (+ = pIC50 4.00-4.49)”. The “A172 Kynurenine cell based assay pIC50” value in assay [2] is reported as “++ (++ = pIC50 4.50-5.49)”.

As for `CN(CCC(=O)Nc1oncc1-c1ccccc1)S(C)(=O)=O` [Compound 47], the “SKOV3 Kynurenine cell based assay pIC50” value in assay [1] is reported as “+ (+ = pIC50 4.00-4.49)”. For the same compound, the “A172 Kynurenine cell based assay pIC50” value in assay [2] is given as “++ (++ = pIC50 4.50-5.49)”.

For `CS(=O)(=O)NCCC(=O)Nc1oncc1-c1ccccc1` [Compound 48], the “SKOV3 Kynurenine cell based assay pIC50” value in assay [1] is listed as “+/− (+/− = pIC50 < 4.00)”. Moreover, in assay [2], the “A172 Kynurenine cell based assay pIC50” value is reported as “++ (++ = pIC50 4.50-5.49)”.

On to `COc1ccccc1-c1cnoc1-c1ccccc1` [Compound 51], for which the “SKOV3 Kynurenine cell based assay pIC50” value in assay [1] was “++ (++ = pIC50 4.50-5.49)”. Further, the “A172 Kynurenine cell based assay pIC50” value in assay [2] is listed as “++ (++ = pIC50 4.50-5.49)”.

With `c1ccc(-n2nnnc2NCC2CCCCC2)cc1` [Compound 52], the “SKOV3 Kynurenine cell based assay pIC50” value in assay [1] was “+++ (+++ = pIC50 ≥ 5.50)”. The “A172 Kynurenine cell based assay pIC50” value in assay [2] is listed as “+ (+ = pIC50 4.00-4.49)”.

Consider `O=S(=O)(Nc1cnoc1-c1ccccc1)c1ccc2ccccc2c1` [Compound 53], for which the “SKOV3 Kynurenine cell based assay pIC50” value in assay [1] is “++ (++ = pIC50 4.50-5.49)”. For the same compound, the “A172 Kynurenine cell based assay pIC50” value in assay [2] is given as “+ (+ = pIC50 4.00-4.49)”.

For the compound `O=S(=O)(Nc1cnoc1-c1ccccc1)c1cc(Cl)ccc1Cl` [Compound 54], the “SKOV3 Kynurenine cell based assay pIC50” value in assay [1] is listed as “++ (++ = pIC50 4.50-5.49)”. Moreover, in assay [2], the “A172 Kynurenine cell based assay pIC50” value is given as “+ (+ = pIC50 4.00-4.49)”.

Turning to `CS(=O)(=O)c1ccc(Cl)c(S(=O)(=O)Nc2cnoc2-c2ccccc2)c1` [Compound 55], in assay [1], the “SKOV3 Kynurenine cell based assay pIC50” value is “+ (+ = pIC50 4.00-4.49)”. Moreover, in assay [2], the “A172 Kynurenine cell based assay pIC50” value was “+/− (+/− = pIC50 < 4.00)”.

For `O=S(=O)(Nc1cnoc1-c1ccccc1)N1CCCCC1` [Compound 56], in assay [1], the “SKOV3 Kynurenine cell based assay pIC50” value is reported as “++ (++ = pIC50 4.50-5.49)”. For the same compound, the “A172 Kynurenine cell based assay pIC50” value in assay [2] is “+/− (+/− = pIC50 < 4.00)”.

On to `OCCNc1oncc1-c1ccccc1` [Compound 57], for which the “SKOV3 Kynurenine cell based assay pIC50” value in assay [1] is given as “++ (++ = pIC50 4.50-5.49)”. Further, the “A172 Kynurenine cell based assay pIC50” value in assay [2] is recorded as “+++ (+++ = pIC50 ≥ 5.50)”.

For the compound `CN(C)C(=O)CCC(=O)Nc1oncc1-c1ccccc1` [Compound 58], in assay [1], the “SKOV3 Kynurenine cell based assay pIC50” value is given as “+ (+ = pIC50 4.00-4.49)”. Besides, in assay [2], the “A172 Kynurenine cell based assay pIC50” value was “++ (++ = pIC50 4.50-5.49)”.

For the compound `O=S(=O)(Nc1oncc1-c1ccccc1)c1cccnc1` [Compound 59], in assay [1], the “SKOV3 Kynurenine cell based assay pIC50” value is recorded as “+ (+ = pIC50 4.00-4.49)”. Moreover, the “A172 Kynurenine cell based assay pIC50” value in assay [2] is on record as “+/− (+/− = pIC50 < 4.00)”.

With `CN(C)C(=O)CNc1oncc1-c1ccccc1` [Compound 60], the “SKOV3 Kynurenine cell based assay pIC50” value in assay [1] was “+ (+ = pIC50 4.00-4.49)”. Moreover, the “A172 Kynurenine cell based assay pIC50” value in assay [2] is “++ (++ = pIC50 4.50-5.49)”.

In the case of `CN1CCCCC1C(=O)Nc1oncc1-c1ccccc1` (centres unmarked) [Compound 61], the “SKOV3 Kynurenine cell based assay pIC50” value in assay [1] is reported as “+/− (+/− = pIC50 < 4.00)”. Also, in assay [2], the “A172 Kynurenine cell based assay pIC50” value is reported as “+ (+ = pIC50 4.00-4.49)”.

For `O=C(Nc1oncc1-c1ccccc1)c1cccnc1` [Compound 62], the “SKOV3 Kynurenine cell based assay pIC50” value in assay [1] was “++ (++ = pIC50 4.50-5.49)”. The “A172 Kynurenine cell based assay pIC50” value in assay [2] was “++ (++ = pIC50 4.50-5.49)”.

`CC(C)(O)C(=O)Nc1oncc1-c1ccccc1` [Compound 64]: the “SKOV3 Kynurenine cell based assay pIC50” value in assay [1] is “+ (+ = pIC50 4.00-4.49)”. Further, the “A172 Kynurenine cell based assay pIC50” value in assay [2] was “++ (++ = pIC50 4.50-5.49)”.

As for `CNC(=O)CCC(=O)Nc1oncc1-c1ccccc1` [Compound 65], the “SKOV3 Kynurenine cell based assay pIC50” value in assay [1] is on record as “++ (++ = pIC50 4.50-5.49)”. The “A172 Kynurenine cell based assay pIC50” value in assay [2] was “+++ (+++ = pIC50 ≥ 5.50)”.
